Results as given in PMC2386126, “The Mycobacterium tuberculosis Rv2540c DNA sequence encodes a bifunctional chorismate synthase” (BMC Biochemistry, 2008).

Tests used:
[1] = molecular target: T1, MtCS (chorismate synthase, aroF, Rv2540c) (Mycobacterium tuberculosis, UniProt P9WPY1); test: biochemical; assay type: binding; conditions: read-out: dissociation constant
T1 construct: gene aroC

[2] = test system: NC(=O)C1=CN([C@@H]2O[C@H](COP(=O)(O)OP(=O)(O)OC[C@H]3O[C@@H](n4cnc5c(N)ncnc54)[C@H](O)[C@@H]3O)[C@@H](O)[C@H]2O)C=CC1; test: purified protein; conditions: apparent, holoenzyme preincubated with 40 μM FMNox, no EPSP, 50 mM Tris-HCl pH 7.8, 25°C

T1 sequence (P9WPY1 whole entry, looked up): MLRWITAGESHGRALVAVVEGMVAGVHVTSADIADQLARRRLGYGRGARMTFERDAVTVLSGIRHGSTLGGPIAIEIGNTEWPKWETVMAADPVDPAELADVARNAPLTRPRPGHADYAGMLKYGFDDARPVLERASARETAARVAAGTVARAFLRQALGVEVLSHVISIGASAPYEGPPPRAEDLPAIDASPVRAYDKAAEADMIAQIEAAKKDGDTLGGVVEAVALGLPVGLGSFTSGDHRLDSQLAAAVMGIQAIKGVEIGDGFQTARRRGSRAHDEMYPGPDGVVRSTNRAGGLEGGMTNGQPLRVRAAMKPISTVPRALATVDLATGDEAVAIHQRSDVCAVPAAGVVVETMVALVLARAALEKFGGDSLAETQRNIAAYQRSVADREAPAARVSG

NC(=O)C1=CN([C@@H]2O[C@H](COP(=O)(O)OP(=O)(O)OC[C@H]3O[C@@H](n4cnc5c(N)ncnc54)[C@H](O)[C@@H]3O)[C@@H](O)[C@H]2O)C=CC1 [NADH]
Kd [1]: 156 ± 12 µM

MtCS (chorismate synthase, aroF, Rv2540c) (Mycobacterium tuberculosis H37Rv)
Km [2]: 36 ± 4 µM
